Our source for the melting point values is a melting point compilation (Tetko et al.; mined from patent text by program, amines drawn as free bases though some values may be those of a salt).

The structures appear in SMILES notation. Bounds are passed on as bounds.

As to `Cc1cc(C(=O)O)ccc1-c1ccccc1C(F)(F)F`, the melting point (commonly the temperature of the solid-liquid transition) lay within 171 to 174 °C.

Consider `O=C(CC(c1ccccc1)c1ccccc1)N1CCC(N2Cc3ccccc3C2=O)CC1`, for which the melting point lay in the range of 166 to 169 °C.

In turn, `Cn1c(S)nnc1COCC(=O)O` returned a melting point of 155 to 156 °C.

`Cc1nnc(-c2cc3c(-c4ccccc4Cl)coc3cn2)o1` registered a melting point of 162 to 163 °C.

Compound `Oc1ccc(-c2nnc(CSCCOc3ccccc3)n2-c2ccccc2)cc1` gave a melting point of 214 to 216 °C.

On to `COC1=C(c2ccc(C)cc2C)C(=O)CCC1`, for which the melting point was 122 to 123 °C.

Compound `C=CCNc1nc(NC(C)(C)C)c2scc(C)c2n1` displayed a melting point of 89 to 90 °C.

`Cc1cc(=O)[nH]c(SCc2ccccn2)n1` showed a melting point of 154 to 156 °C.

Take `COc1cc2c(c(O)c1OC)C(Cc1ccc(F)cc1)NCC2` (stereo not drawn): the melting point lay in the range of 195 to 200 °C.

As to `CCCc1c(OCCCSc2ccc(C(=O)CCC(=O)O)cc2)ccc(C(C)=O)c1OC(C)=O`, the melting point lay in the range of 121 to 123 °C.

`CC1=C2C(=O)N(O)C(=O)c3cccc(c32)C(=NO)C1O` (stereo not drawn) returned a melting point of 302 to 304 °C.

Consider `CCOC(=O)c1[nH]c(CC)c(CC(C)C)c1C`, for which the melting point lay in the range of 94 to 96 °C.

`CCCc1sc(-c2ccccc2)nc1O` had a melting point of 86 to 87 °C.

As for `Cc1cc2c(cc1C)SC(C(F)(F)F)C(C(=O)O)=C2` (stereo not drawn), the melting point is 235 to 237 °C.

The compound `CC(C)c1nn2ccccc2c1S(=O)(=O)c1ccc(O)cc1` returned a melting point of 146 °C.

In turn, `Cc1c(NC(=O)c2ccc(-c3ccc(F)cc3)cc2)ccc2cc(CN3C(C)CCCC3C)cnc12` (stereo not drawn) came in with a melting point of 167 to 168 °C.

Consider `COc1ccc(CCN2CCC(NC(=O)c3ccccc3)CC2)cc1OC`, for which the melting point lay within 194 to 195 °C.

Consider `COc1ccnc(C(=O)Nc2ccc(Oc3ccc(C(F)(F)F)cc3)cc2)c1O`, for which the melting point was 91 to 93 °C.

In the case of `COC(=O)C(=O)Nc1cc(OCCCOc2ccc(C(C)=O)c(O)c2CCC(F)(F)F)c(Br)cc1C`, the melting point lay in the range of 139 to 140 °C.

Turning to `CCOC(=O)c1cn(CCc2ccccc2)c2oc(CN3CCOCC3)cc2c1=O`, the melting point lay within 150 to 153 °C.

Compound `CCCc1nc2c(N)nc3ccccc3c2n1CCCCCC(=O)N(C)OC` registered a melting point of 134 to 135 °C.

In turn, `CCOP(=O)(NCc1cccc(-c2nc(=O)c3ccccc3s2)n1)OCC` showed a melting point of 135 to 136 °C.

Regarding `CC1Cc2cc(NS(C)(=O)=O)ccc2OC12CCC(N1CCc3ccccc3C1)CC2` (stereo not drawn), the melting point came out at 135 °C.

In the case of `Cn1nnnc1NCC(O)COc1cccc(CN2CCCCC2)c1` (stereo not drawn), the melting point was 156 to 157 °C.

Turning to `CC1=NN(c2ccc(Cl)cc2)C(=O)C1C(=O)Nc1ccc(F)cc1` (stereo not drawn), the melting point lay within 109 to 113 °C.

As to `CN(Cc1cc2c(=O)c(C(=O)NCc3ccc(Cl)cc3)cn(C)c2o1)CC(O)c1cccnc1` (stereo not drawn), the melting point lay within 145 to 149 °C.

Compound `CC(=O)c1cc2c(c(C(=O)O)c1)NCCC2` gave a melting point of 229 °C.

In turn, `CN1CC(Cn2cncn2)CC2c3cccc4[nH]cc(c34)CC21` (stereo not drawn) yielded a melting point of 245 to 253 °C.

`Nc1ncc(-c2cccc(Nc3ccc(-c4ccoc4)cc3N)c2)cn1` gave a melting point of 208 to 209 °C.

The compound `Nc1c(-c2cc(Cl)ccc2O)c2cc(Cl)c(Cl)cc2[nH]c1=O` displayed a melting point of 305 to 307 °C.

For `Clc1ccc(-c2coc3ccccc23)cc1`, the melting point lay in the range of 56 to 57 °C.

On to `O=C(O)CN1C(=O)C(NC(=O)Nc2cccc3ccccc23)CCc2ccccc21` (stereo not drawn), for which the melting point was 215 to 216 °C.

`COc1ccc(OC)c(-c2nnc3ccc(Cl)nn23)c1` gave a melting point of 111 to 112 °C.

In the case of `N#CC1(c2ccccc2)CCN(Cc2ccccc2)CC1`, the melting point is 73 to 74 °C.

For `O=C(N[C@H](Cc1ccc(C(F)(F)F)cc1)[C@@H](O)c1ccc(F)cc1F)c1ccc(F)c2ccccc12` (racemic), the melting point was in the range of 194 to 195 °C.

The compound `C=CCNc1nc(NCCC)c2cc([N+](=O)[O-])ccc2n1` came in with a melting point of 211 to 212 °C.

In turn, `O=C(CCCS(=O)c1ccc(Cl)cc1)NO` (stereo not drawn) displayed a melting point of 126 to 127 °C.

`COc1ccc(P(=O)(c2ccccc2)c2ccccc2)cc1OC` displayed a melting point of 154 to 156 °C.

For the compound `Cc1cccc2ncn(-c3nnn[nH]3)c(=O)c12`, the melting point fell in the range of 280 to 281 °C.

For the compound `COc1cc2cc(C(=O)NO)sc2cc1OC`, the melting point lay within 179 to 180 °C.

Consider `CC(C)(C)OC(=O)NCc1ccc([N+](=O)[O-])cc1`, for which the melting point lay within 110 to 111 °C.

As for `CN1CCN(CC2CCCCN2CC(=O)N2c3ccccc3NC(=O)c3ccccc32)CC1` (stereo not drawn), the melting point is 200 to 202 °C.

On to `O=[N+]([O-])c1c(Nc2ccc(O)cc2)ncnc1-c1ccc(C(F)(F)F)cc1F`, for which the melting point fell in the range of 169 to 172 °C.

`CC(C)(C)OC(=O)N[C@H](CC(=O)OCc1ccccc1)C(=O)N[C@H](CO)Cc1ccccc1` yielded a melting point of 94 to 95 °C.

`Nc1ccc(-n2ccnc2S(=O)Cc2ccccc2N2CCOCC2)nc1` (stereo not drawn) had a melting point of 190 to 192 °C.

Consider `CC1(O)OC(=O)C=C1c1ccccc1` (stereo not drawn), for which the melting point is 105 to 107 °C.

In turn, `C#CC[C@H](c1nc2cc(Cl)ccc2c(=O)n1Nc1ccccc1)N(CCCN)C(=O)c1cc(F)c(F)c(F)c1F` had a melting point of 155 to 158 °C.

For the compound `CCOCCCOc1ccc(-c2ccc3c(c2)C=C(C(=O)OC)CCN3)cc1`, the melting point fell in the range of 99 to 102 °C.

`O=c1[nH]c(=Cc2ccc(OCc3ccccc3)cn2)c(=O)[nH]c1=Cc1cccc(Cl)c1` returned a melting point of 236 to 237 °C.

Turning to `CC(c1oc2ccccc2c(=O)c1-c1cccc(F)c1)n1nc(-c2cncnc2)c2c(N)ncnc21` (stereo not drawn), the melting point is 207 to 211 °C.

The compound `Cc1ncc2c(c1OCC(=O)O)COC2c1ccc(F)cc1` (stereo not drawn) yielded a melting point of 214 °C.

Take `Cc1noc([C@@H]2CSCc3c(O)cc(O)c(C)c3C(=O)OC[C@@H](O)C(=O)N2)n1`: the melting point fell in the range of 265 to 267 °C.

As for `CC(C(=O)c1ccc(Cl)cc1)n1ncn(-c2ccc(N3CCN(Cc4ccccc4)CC3)cc2)c1=O` (stereo not drawn), the melting point is 164 °C.

Turning to `COCCOc1cc2c(Nc3ccc(Sc4nccn4C)c(Cl)c3)c(C#N)cnc2cc1F`, the melting point was in the range of 265 to 270 °C.

In turn, `C#CCOc1cc(C(N)=O)cc(Cl)c1OCC#C` yielded a melting point of 122 to 125 °C.

In turn, `Oc1ccc2c(-c3ccco3)nn(Cc3ccccc3F)c2n1` registered a melting point of 250 °C.

`Cc1ccc2c(NCc3ccccc3)c3c(nc2c1)CCCC3O` (stereo not drawn) came in with a melting point of 148 to 153 °C.

Take `COc1ccc(Sc2ccccc2/C=C/C(=O)NCCCCO)cc1`: the melting point was in the range of 134 to 136 °C.

`CCCCn1c(=O)c2c(ncn2S(=O)(=O)c2cc(C)c(Cl)cc2C)n(CCCC)c1=O` displayed a melting point of 138 to 140 °C.

Turning to `CCOc1cccc2c1C(=NNc1ccc(S(N)(=O)=O)cc1)C(=O)N2`, the melting point was more than 250 °C.

As to `Cc1c(C(=O)N[C@@H](Cc2ccc(OCc3ccccc3)cc2)C(=O)O)oc2cc(-c3ccc(Cl)cc3)ccc12`, the melting point was in the range of 143 to 144 °C.

For the compound `CCOc1cccc2cc(C(=O)C34CC5CC(CC(C5)C3)C4)oc12`, the melting point lay within 84 to 86 °C.

As to `Cc1nc2c3c(ccn2c1C)C(OCCO)C(O)C(c1ccccc1)N3` (stereo not drawn), the melting point lay within 107 to 109 °C.
